Assay results: patent publication US8258119B2, “Anti-cancer drugs and uses relating thereto for metastatic malignant melanoma and other cancers” (Kasina Laila Innova Pharmaceuticals, priority 2008, dated 2012)

Tests used:
[1] = system: B16 F0 mouse melanoma cells; experiment: Cell cycle analysis by flow cytometry; type: cell-based; conditions: 24 h, propidium iodide FACS
Description: B16 F0 Cells were treated with the indicated concentrations of either vehicle (0.1% DMSO) or DTIC or Compound 6 for 24 h at different concentrations as indicated. The propidium iodide stained cells were analyzed for the distribution of cell cycle by FACS calibur, and the percentage of distribution at different phases of cell cycle was determined using ModFIT software. Data are shown as one representative of at least three independent experiments.
Cell cycle analysis of Compound 6 and DTIC treated B16F0 cells were analyzed by flow cytometry as described earlier with some modifications (42). Briefly, B16F0 cells were cultivated in DMEM containing 10% fetal bovine serum (FBS) in presence of 4.5 g/l D-glucose. The sub confluent cells were treated with either DTIC or Compound 6 and incubated for 24 h. Cells were harvested and prepared single cell suspension in buffer (PBS+2% FBS). The cells were washed twice with cold PBS and then fixed with cold 70% ethanol for 30 min. Ethanol was removed by centrifugation and the cells were suspended and the cell count was adjusted to 10^6 cells per ml. The cells were washed two times with PBS and then the cells were stained with propidium iodide for 30 min at 37° C. in presence of RNase. Finally, the cells were analyzed on FACS Calibur flow cytometry (BD Biosciences, USA). […]

[2] = cited from earlier work
[3] = system: normal human skin epithelial HS.531.sk cells; experiment: LDH leakage assay on normal skin cells (tumor selectivity); type: cell-based
Description: From the data obtained from the MTT assay (Table J), compound 1, compound 6 and compound 13 have been selected and their cytotoxicity potential has been further validated in LDH leakage assay. […] Cytotoxicity potential of DTIC and its derivative compounds were evaluated by measuring the leaked lactate dehydrogenase (LDH) into the culture supernatant (LDH Cytotoxicity Detection Roche Applied Sciences, Germany). The leaked LDH is directly proportional to the cell damage done by the cytotoxic compounds. In brief, cells were treated with test compounds at various concentrations and incubated for 48 h. Vehicle control culture wells received only a maximum of 0.5% DMSO. The cell free culture supernatants were mixed with catalyst and dye solution and allowed to incubate for 15 min at room temperature. Finally, the reaction was stopped and the optical density was measured at 492 nm in a microplate reader (BioRad, USA). The results (mean OD±SD) obtained from quadruplicate wells were used in calculation to determine the cytotoxicity potential (50% of inhibitory concentration, IC50) of the test compounds. A plot of loss of cell viability as indicated by the leakage of LDH versus drug concentration is depicted in FIG. 1.
Next, to check whether the DTIC derivative compounds can selectively kill the melanoma cells without or minimally affecting the normal cells, we assessed the effect of the test compounds on normal human skin epithelial HS.531.sk cells. […] Whereas, 120 μg/ml of DTIC, compound 1, […] caused 5.8%, 4.2%, 2.4%, and 2.4% reduction in normal cell viability, respectively.

[4] = patient with renal and hepatic dysfunctions

| SMILES | effect on cell cycle distribution [1] | average cumulative excretion of unchanged DTIC in the urine ([2]; in six hours) | initial half life [2, 4] [min] | terminal half life [2, 4] [min] | initial half life of disappearance from the plasma ([2]; plasma, biphasic) [min] | terminal half life of disappearance from the plasma ([2]; plasma, biphasic) | reduction in normal cell viability ([3]; 120 μg/ml) [%] | effect on normal skin cell growth ([3]; up to 100 μg/ml) |
| --- | --- | --- | --- | --- | --- | --- | --- | --- |
| CN(C)/N=N/c1ccsc1C(=O)O [Compound 6, 3-[(dimethylamino)diazenyl]thiophene-2-carboxylic acid] | induction of cell cycle arrest in G2/M phase |  |  |  |  |  |  |  |
| CN(C)/N=N/c1[nH]cnc1C(N)=O [DTIC, 5-(3,3-dimethyl-1-trizeno)-imidazole-4-carboxamide, reference compound] |  | 40 % of the injected dose | 55 | 432 | 19 | five | 5.8 | do not affect the normal cell skin cell growth |
